Data taken from patent US8124381B2, “Process and materials for production of glucosamine and N-acetylglucosamine” (Arkion Life Sciences, priority 2002, dated 2012).
Entries after “also recorded” stand apart in the source; their conditions may differ.

Columns and labels:
[1] = system: E. coli 7107-18; assay: Effects of N-acetyl glucosamine on E. coli 7107-18; format: cell-based; settings: 62 g/L N-acetyl glucosamine in M9A-glucose (40 g/L), also medium pre-incubated more than eight hours
Excerpt: Cells were inoculated into […]-glucose (40 g/L) containing 62 g/L N-acetyl glucosamine.

[2] = Stability of NAG in fermentation at 37 C and pH 7.0; format: physicochemical; settings: after cessation of glucose feed at 37 C and pH 7.0
Excerpt: The use of lower temperature and pH were key factors in stabilizing the GLcN fermentation, primarily due to the labile nature of GLcN at higher pH and temperature. However, it was shown that NAG was stable at neutral pH. Fermentation for NAG production was operated in the pH range of 6.7 to 7.0 throughout the program.

[3] = Solubility of N-acetylglucosamine in water miscible solvents; format: physicochemical; settings: IPA, ethanol, methanol, acetone, tetrahydrofuran, dimethylsulfoxide, dimethylformamide, dioxane, acetonitrile
Excerpt: Recovering N-acetylglucosamine-containing solids from the fermentation broth can be enhanced by contacting N-acetylglucosamine in the broth with a water miscible solvent. […] Therefore, by introduction of such a water miscible solvent into the broth, the N-acetylglucosamine will become less soluble and will further recovery.

[4] = Heat stability of purified solid N-acetylglucosamine at 105 C; format: physicochemical; settings: 98% pure sample, 2 hours at 105 C
[5] = Degradation in hydrochloric acid at 90-100 C based on ammonia formation; format: physicochemical; settings: 30% hydrochloric acid, 90 C, 3 hours
Description: Glucosamine degradation was examined at 90° C. and 100° C. using 5% and 10% glucosamine hydrochloride (w/w) with 12% and 20% hydrochloric acid by weight. Samples were incubated from 1-24 hours and assayed enzymatically for ammonia using glutamate dehydrogenase. […] Glucosamine degradation is based on ammonia formation.
N-acetylglucosamine was hydrolyzed to glucosamine at 90° C. using the hybridization oven. The reaction was carried out inside a screw capped glass tube. The 30% hydrochloric acid (30 g) was preincubated at 90° C. for 1 hour. After this 10 g solid N-acetylglucosamine was added, quickly dissolved, and a To sample taken. Samples were taken at 30-minute intervals over the next three hours. […] Samples were analyzed for ammonia enzymatically.

[6] = Stability of N-acetylglucosamine in M9A medium
Description: The stability of N-acetylglucosamine was tested in an experiment similar to the glucosamine degradation studies. The stability of 80 and 40 g l^−1 N-acetyl glucosamine at pH 5.5 and 7.0 was monitored in medium M9A-without glucose over a period of two days.

[7] = target: T1, E. coli glucosamine synthase GlmS*54 (Escherichia coli, UniProt P17169, A39T/G472S/R250C); assay: Effects of phosphorylated sugars on glucosamine synthase; format: biochemical
T1 construct: made in house; host or cells: E. coli 7107-18 (printed '7017-18'; T7-glmS*54 integrated at galK) and strains derived from it; crude extract
Description: Glucosamine synthetase activity was examined in the presence of various phosphorylated sugars. Crude enzyme extracts was prepared from cells of 7017-18 grown in shake flasks for 24 hours with lactose induction.

[8] = target: phosphoglucoisomerase (Pgi) (Escherichia coli, UniProt P0A6T1); assay: Effect of phosphorylated amino sugars on phosphoglucoisomerase activity; format: biochemical; settings: in vitro, FIG. 15
Excerpt: Therefore, effects of glucosamine-6-P and N-acetylglucosamine-6-P on several of the enzymes were examined.

[9] = target: glucose-6-P dehydrogenase (zwf) (Escherichia coli, UniProt P0AC53, A9V); assay: Effect of phosphorylated amino sugars on glucose-6-P dehydrogenase; format: biochemical; settings: in vitro, FIG. 16
[10] = target: glucosamine N-acetyltransferase (Saccharomyces cerevisiae, UniProt P43577); assay: Product inhibition of glucosamine N-acetyltransferase; format: biochemical
[11] = system: glucosamine synthetase (GlmS); assay: Thermal stability of GlmS enzymes (denaturation at 50 C); format: biochemical, E. coli; settings: crude extracts incubated at 50 C, sampled over 90 minutes, assayed at 25 C
Description: Denaturation at 50° C. was used to measure possible differences in thermal stability of different GlmS enzymes. Crude extracts were incubated at 50° C. and sampled over a 90-minute period. The samples were assayed for glucosamine synthetase activity at 25° C. with saturating levels of all substrates.

[12] = system: glucosamine synthetase (GlmS); assay: Sensitivity of GlmS enzymes to inhibition by glucosamine-6-P (initial velocity, Ki); format: biochemical, E. coli; B. subtilis; settings: 0-30 mM glucosamine-6-P
Description: (§1) Different glucosamine synthetase enzymes, including native B. subtillus GlmS, native E. coli GlmS and mutant E. coli GlmS, were studied in vitro. Cells of various E. coli strains were grown in the M9A medium, harvested, and frozen. Cells extracts were prepared and the glucosamine synthetases were characterized and compared.
Enzyme sensitivities to the reaction product glucosamine-6-P were examined.

[13] = system: glucosamine synthetase (GlmS); format: biochemical, E. coli; B. subtilis; settings: crude extracts
[14] = substrate: NC(=O)CC[C@H](N)C(=O)O; assay: GlmS (glucosamine synthase) inhibition and Michaelis-Menten kinetics, crude extract of strain 2123-12; format: biochemical, Escherichia coli; settings: other: crude extracts, nonlinear regression
Description: as §1
(§2) Enzyme sensitivities to the reaction product glucosamine-6-P were examined. […] This figure highlights the dramatic difference between the wild type GlmS and these mutant GlmS strains.
(§3) The Mutants 2123-54 and the B. subtilis enzyme have higher Ki values (Table 6). Measured Ki constants for several of these mutants are 4 to 8 times the value for the native enzyme in strain 2123-12. From shake flask studies it is apparent that decreased sensitivity to glucosamine-6-P allows higher glucosamine levels to accumulate.
(§4) These values are slightly higher than those obtained with the native enzyme.

[15] = substrate: O=P(O)(O)OC[C@H]1OC(O)(CO)[C@@H](O)[C@@H]1O; assay: as above; format: biochemical, Escherichia coli; settings: other: crude extracts, nonlinear regression
Description: as §1, §2, §3, §4

[16] = substrate: NC(=O)CC[C@H](N)C(=O)O; assay: GlmS inhibition and Michaelis-Menten kinetics, crude extract of strain 2123-54; format: biochemical, Escherichia coli; settings: other: crude extracts
Description: as §1, §2, §3, §4

[17] = substrate: O=P(O)(O)OC[C@H]1OC(O)(CO)[C@@H](O)[C@@H]1O; assay: as above; format: biochemical, Escherichia coli; settings: other: crude extracts
Description: as §1, §2, §3, §4

Chain of phosphoglucoisomerase (Pgi) (P0A6T1 whole entry): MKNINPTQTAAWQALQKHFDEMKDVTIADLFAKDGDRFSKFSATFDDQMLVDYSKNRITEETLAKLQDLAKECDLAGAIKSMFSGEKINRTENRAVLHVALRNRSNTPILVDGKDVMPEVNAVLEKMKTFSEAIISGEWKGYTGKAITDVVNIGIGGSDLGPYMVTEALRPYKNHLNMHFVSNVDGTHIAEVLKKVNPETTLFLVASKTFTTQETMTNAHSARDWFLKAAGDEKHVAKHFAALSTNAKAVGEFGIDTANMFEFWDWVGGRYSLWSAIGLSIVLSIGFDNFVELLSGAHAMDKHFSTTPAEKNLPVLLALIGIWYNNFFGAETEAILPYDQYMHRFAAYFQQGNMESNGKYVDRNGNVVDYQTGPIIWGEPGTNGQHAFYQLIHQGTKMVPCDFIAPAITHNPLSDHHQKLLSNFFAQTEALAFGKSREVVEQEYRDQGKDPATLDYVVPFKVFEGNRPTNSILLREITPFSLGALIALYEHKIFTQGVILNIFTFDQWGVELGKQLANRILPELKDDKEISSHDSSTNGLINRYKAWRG
Chain of glucosamine N-acetyltransferase (P43577 whole entry): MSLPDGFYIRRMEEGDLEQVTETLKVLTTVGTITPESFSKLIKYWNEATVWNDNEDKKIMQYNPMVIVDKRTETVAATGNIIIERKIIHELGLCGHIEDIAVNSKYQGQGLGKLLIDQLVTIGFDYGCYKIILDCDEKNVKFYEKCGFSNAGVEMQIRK
Chain of glucose-6-P dehydrogenase (zwf) (P0AC53 whole entry A9V): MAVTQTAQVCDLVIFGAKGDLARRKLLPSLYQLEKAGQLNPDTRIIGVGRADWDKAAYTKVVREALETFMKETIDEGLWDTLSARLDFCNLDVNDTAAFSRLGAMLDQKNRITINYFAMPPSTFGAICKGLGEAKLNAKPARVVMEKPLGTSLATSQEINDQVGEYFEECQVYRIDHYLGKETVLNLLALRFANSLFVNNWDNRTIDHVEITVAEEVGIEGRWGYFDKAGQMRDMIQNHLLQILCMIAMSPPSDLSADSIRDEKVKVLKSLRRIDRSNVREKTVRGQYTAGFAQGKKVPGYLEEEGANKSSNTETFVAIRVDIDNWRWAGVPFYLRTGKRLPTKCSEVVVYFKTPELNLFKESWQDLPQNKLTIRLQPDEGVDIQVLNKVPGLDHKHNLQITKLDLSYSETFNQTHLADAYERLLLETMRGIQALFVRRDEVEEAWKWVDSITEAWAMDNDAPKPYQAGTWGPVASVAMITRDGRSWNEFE

CC(=O)N[C@@H](C=O)[C@@H](O)[C@H](O)[C@H](O)CO [N-acetylglucosamine, 2-acetamido-2-deoxy-D-glucose]
growth inhibition [1]: No significant growth inhibition
time NAG was stable [2]: at least 50 hours
solubility in water miscible solvents [3]: very insoluble
color change on heating [4]: turned light brown
weight loss on heating [4]: 4.7%
degradation based on ammonia levels [5]: around 3.5%
drop in pH during incubation [6]: no significant drop in pH
degradation of N-acetyl glucosamine ([6]; 80 and 40 g l-1, pH 5.5 and 7.0, M9A without glucose, two days): No significant degradation
amber color formation ([6]; M9A medium, 48 hours): No such color formation

CC(=O)N[C@H]1C(O)O[C@H](COP(=O)(O)O)[C@@H](O)[C@@H]1O (stereo partly drawn) [N-acetylglucosamine-6-P, N-acetylglucosamine-6-phosphate]
activity at 10000 µM [7]: 100%
activity at 20000 µM [7]: 100%
inhibition of phosphoglucoisomerase (Pgi) [8]: significantly less so; also recorded: does not significantly inhibit
inhibition of glucose-6-P dehydrogenase (zwf) [9]: does not significantly inhibit
product inhibition of glucosamine N-acetyltransferase [10]: did not show any significant product inhibition

B1: WT E. coli GlmS: wild-type E. coli glucosamine-6-phosphate synthase (SEQ ID NO:2), expressed in strain 2123-12 (protein, listed as Escherichia coli)
chain: MCGIVGAIAQRDVAEILLEGLRRLEYRGYDSAGLAVVDAEGHMTRLRRLGKVQMLAQAAEEHPLHGGTGIAHTRWATHGEPSEVNAHPHVSEHIVVVHNGIIENHEPLREELKARGYTFVSETDTEVIAHLVNWELKQGGTLREAVLRAIPQLRGAYGTVIMDSRHPDTLLAARSGSPLVIGLGMGENFIASDQLALLPVTRRFIFLEEGDIAEITRRSVNIFDKTGAEVKRQDIESNLQYDAGDKGIYRHYMQKEIYEQPNAIKNTLTGRISHGQVDLSELGPNADELLSKVEHIQILACGTSYNSGMVSRYWFESLAGIPCDVEIASEFRYRKSAVRRNSLMITLSQSGETADTLAGLRLSKELGYLGSLAICNVPGSSLVRESDLALMTNAGTEIGVASTKAFTTQLTVLLMLVAKLSRLKGLDASIEHDIVHGLQALPSRIEQMLSQDKRIEALAEDFSDKHHALFLGRGDQYPIALEGALKLKEISYIHAEAYAAGELKHGPLALIDADMPVIVVAPNNELLEKLKSNIEEVRARGGQLYVFADQDAGFVSSDNMHIIEMPHVEEVIAPIFYTVPLQLLAYHVALIKGTDVDQPRNLAKSVTVE
thermal stability at 50 C [11]: little significant difference in thermal stability

B2: Wild type Bacillus GlmS: wild-type Bacillus subtilis glucosamine-6-phosphate synthase (SEQ ID NO:16), expressed in E. coli strain 7107-24 (protein, listed as Bacillus subtilis)
chain: MCGIVGYIGQLDAKEILLKGLEKLEYRGYDSAGIAVANEQGIHVFKEKGRIADLREVVDANVEAKAGIGHTRWATHGEPSYLNAHPHQSALGRFTLVHNGVIENYVQLKQEYLQDVELKSDTDTEVVVQVIEQFVNGGLETEEAFRKTLTLLKGSYAIALFDNDNRETIFVAKNKSPLLVGLGDTFNVVASDAMAMLQVTNEYVELMDKEMVIVTDDQVVIKNLDGDVITRASYIAELDASDIEKGTYPHYMLKETDEQPVVMRKIIQTYQDENGKLSVPGDIAAAVAEADRIYIIGCGTSYHAGLVGKQYIEMWANVPVEVHVASEFSYNMPLLSKKPLFIFLSQSGETADSRAVLVQVKALGHKALTITNVPGSTLSREADYTLLLHAGPEIAVASTKAYTAQIAVLAVLASVAADKNGINIGFDLVKELGIAANAMEALCDQKDEMEMIAREYLTVSRNAFFIGRGLDYFVCVEGALKLKEISYIQAEGFAGGELKHGTIALIEQGTPVFALATQEHVNLSIRGNVKEVAARGANTCIISLKGLDDADDRFVLPEVNPALAPLVSVVPLQLIAYYAALHRGCDVDKPRNLAKSVTVE
sensitivity to GlcN-6-P inhibition / product resistance (in words) [12]: product resistance very comparable to the E. coli mutant GlmS enzymes
Km (fructose-6-P) [13]: very similar to the mutant E. coli enzyme GlmS*54

B3: E. coli GlmS (glucosamine-6-phosphate synthase), wild type, SEQ ID NO:2 (strain 2123-12) (Escherichia coli K-12) (protein)
chain: CGIVGAIAQRDVAEILLEGLRRLEYRGYDSAGLAVVDAEGHMTRLRRLGKVQMLAQAAEEHPLHGGTGIAHTRWATHGEPSEVNAHPHVSEHIVVVHNGIIENHEPLREELKARGYTFVSETDTEVIAHLVNWELKQGGTLREAVLRAIPQLRGAYGTVIMDSRHPDTLLAARSGSPLVIGLGMGENFIASDQLALLPVTRRFIFLEEGDIAEITRRSVNIFDKTGAEVKRQDIESNLQYDAGDKGIYRHYMQKEIYEQPNAIKNTLTGRISHGQVDLSELGPNADELLSKVEHIQILACGTSYNSGMVSRYWFESLAGIPCDVEIASEFRYRKSAVRRNSLMITLSQSGETADTLAGLRLSKELGYLGSLAICNVPGSSLVRESDLALMTNAGTEIGVASTKAFTTQLTVLLMLVAKLSRLKGLDASIEHDIVHGLQALPSRIEQMLSQDKRIEALAEDFSDKHHALFLGRGDQYPIALEGALKLKEISYIHAEAYAAGELKHGPLALIDADMPVIVVAPNNELLEKLKSNIEEVRARGGQLYVFADQDAGFVSSDNMHIIEMPHVEEVIAPIFYTVPLQLLAYHVALIKGTDVDQPRNLAKSVTVE
notes: made in house; host or cells: E. coli strain 2123-12 (T7-glmS integrated in the chromosome), crude cell extract
Km [14]: 170 µM
Km [15]: 200 µM

B4: E. coli GlmS mutant GlmS*54, SEQ ID NO:6 (Ala39Thr, Arg250Cys, Gly472Ser) (strain 2123-54) (Escherichia coli K-12; A39T/G472S/R250C) (protein)
chain: CGIVGAIAQRDVAEILLEGLRRLEYRGYDSAGLAVVDTEGHMTRLRRLGKVQMLAQAAEEHPLHGGTGIAHTRWATHGEPSEVNAHPHVSEHIVVVHNGIIENHEPLREELKARGYTFVSETDTEVIAHLVNWELKQGGTLREAVLRAIPQLRGAYGTVIMDSRHPDTLLAARSGSPLVIGLGMGENFIASDQLALLPVTRRFIFLEEGDIAEITRRSVNIFDKTGAEVKRQDIESNLQYDAGDKGIYCHYMQKEIYEQPNAIKNTLTGRISHGQVDLSELGPNADELLSKVEHIQILACGTSYNSGMVSRYWFESLAGIPCDVEIASEFRYRKSAVRRNSLMITLSQSGETADTLAGLRLSKELGYLGSLAICNVPGSSLVRESDLALMTNAGTEIGVASTKAFTTQLTVLLMLVAKLSRLKGLDASIEHDIVHGLQALPSRIEQMLSQDKRIEALAEDFSDKHHALFLSRGDQYPIALEGALKLKEISYIHAEAYAAGELKHGPLALIDADMPVIVVAPNNELLEKLKSNIEEVRARGGQLYVFADQDAGFVSSDNMHIIEMPHVEEVIAPIFYTVPLQLLAYHVALIKGTDVDQPRNLAKSVTVE
notes: made in house; host or cells: E. coli strain 2123-54 (lacZ::T7-glmS*54), crude cell extract
Km [16]: 730 µM
Km [17]: 640 µM
